Reference: ChEMBL document CHEMBL1201862, “PubChem BioAssay data set” (2004)
Active and inactive are the calls of the source.

Assays:
Streptococcus = test: GAS UMAA2166 growth inhibition – luminescence, BacTiterGlo, counter-screen for streptokinase expression inhibitor project, dose response (AID 1915); assay type: functional, organism-based;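 further: potency for reduction of bacterial viability or growth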
[1] = target: Serine/threonine-protein phosphatase (Candida dubliniensis (strain CD36 / CBS 7987 / NCPF 3949 / NRRLY-17841) (Yeast), UniProt B9W6M3); test: blockers of CaCl2-induced CDRE-lacZ signaling – S. cerevisiae, luminescence, secondary, dose response (AID 2388); assay type: functional, cell-based;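 further: yeast reporter cells carrying a calcineurin-responsive lacZ construct stimulated with calcium chloride; luminescent beta-galactosidase reporter signal in whole cells rather than isolated phosphatase activity; potency for inhibition where a drop in reporter signal means calcineurin blockade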
Serine/threonine-protein phosphatase, sequence (B9W6M3 whole entry): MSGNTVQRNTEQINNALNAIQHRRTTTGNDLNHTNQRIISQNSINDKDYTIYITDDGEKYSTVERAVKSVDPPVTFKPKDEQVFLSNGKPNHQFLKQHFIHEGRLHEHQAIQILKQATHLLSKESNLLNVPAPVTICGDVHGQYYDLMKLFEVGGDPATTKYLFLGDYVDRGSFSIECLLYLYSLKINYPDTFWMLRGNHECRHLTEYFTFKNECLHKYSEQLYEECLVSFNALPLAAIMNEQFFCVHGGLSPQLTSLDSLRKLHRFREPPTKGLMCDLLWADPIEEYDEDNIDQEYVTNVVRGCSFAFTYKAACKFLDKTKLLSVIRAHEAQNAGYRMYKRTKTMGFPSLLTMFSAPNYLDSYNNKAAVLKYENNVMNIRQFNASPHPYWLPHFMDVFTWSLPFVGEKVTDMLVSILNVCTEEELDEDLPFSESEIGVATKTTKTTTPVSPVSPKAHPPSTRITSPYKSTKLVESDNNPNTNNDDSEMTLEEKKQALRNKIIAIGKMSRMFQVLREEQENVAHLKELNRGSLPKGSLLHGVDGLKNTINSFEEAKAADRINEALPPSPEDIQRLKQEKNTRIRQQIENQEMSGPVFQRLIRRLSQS

[2] = target: Intestinal-type alkaline phosphatase (Mus musculus, UniProt P24822); test: mouse intestinal alkaline phosphatase activators, dose response, biochemical, luminescence, uHTS hits (AID 488783); assay type: functional
Intestinal-type alkaline phosphatase (Mus musculus, UniProt P24822), sequence (P24822 whole entry, the tested form may be a part): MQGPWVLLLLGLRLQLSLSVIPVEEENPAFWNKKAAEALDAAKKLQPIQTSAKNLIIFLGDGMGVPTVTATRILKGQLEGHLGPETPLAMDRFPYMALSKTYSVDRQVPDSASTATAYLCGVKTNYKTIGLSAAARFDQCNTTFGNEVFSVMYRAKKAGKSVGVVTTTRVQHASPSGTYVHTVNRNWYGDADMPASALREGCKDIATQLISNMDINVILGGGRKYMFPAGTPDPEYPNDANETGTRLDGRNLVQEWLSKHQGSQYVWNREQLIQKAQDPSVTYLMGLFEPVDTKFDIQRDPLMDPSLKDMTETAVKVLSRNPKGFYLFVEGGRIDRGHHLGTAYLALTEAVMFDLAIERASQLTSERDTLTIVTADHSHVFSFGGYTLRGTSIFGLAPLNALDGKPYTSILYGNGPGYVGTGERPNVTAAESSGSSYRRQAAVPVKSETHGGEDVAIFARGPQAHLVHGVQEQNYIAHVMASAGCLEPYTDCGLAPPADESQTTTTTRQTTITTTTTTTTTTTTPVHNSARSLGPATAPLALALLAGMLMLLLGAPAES

[3] = HIV-1 AD8 envelope cell-cell fusion blockers – cherry-pick, dose response (AID 652062); assay type: functional, cell-based;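 further: luciferase signal from cell-cell fusion driven by HIV-1 clade B AD8 Env; potency is for inhibitors of fusion seen as a drop in luminescence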
[4] = blockers of HIV-1 ZM109 envelope-driven cell-cell fusion – HeLa effector, CEM target cells, luciferase, cherry-pick, dose response (AID 652058); assay type: functional, cell-based;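 further: luciferase signal from HIV-1 Env mediated cell-cell fusion of effector and target cells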
[5] = microbe, parasite or virus in culture; assay type: functional; details: Mycobacterium tuberculosis
BJ [6] = test: growth inhibition of engineered Ras-driven BJ cells – cell-based, alamar blue fluorescence, cherrypicked samples, dose response (AID 2631); assay type: functional; details: Homo sapiens;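 further: confirmatory dose-response assay in RAS-dependent BJ fibroblasts engineered with TERT, LT and ST, with cytotoxicity read by fluorescence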
CHO = CHO cell viability loss, potency – luminescence, cytotoxicity control for TLR9-MyD88 binding inhibitor project, dose response (AID 588339); assay type: functional, cell-based, hamster; details: Cricetulus griseus;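 further: CHO cells stably coexpressing TLR9 and MyD88 fusions from primary screen; compound exposure lasted 48 hours before viability readout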
[7] = alpha-synuclein stem-loop translation blockers – luminescence, H4 neuroglioblastoma cells, dose confirmation, confirmation (AID 2454); assay type: functional, cell-based;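 further: H4 neuroglioblastoma cells carrying an alpha-synuclein 5'UTR luciferase reporter; potency for inhibition of the luciferase signal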
[8] = target: Alkaline phosphatase, placental type (Homo sapiens, UniProt P05187); test: human placental alkaline phosphatase inhibition – biochemical, luminescence, confirmation (AID 1512); assay type: functional
Alkaline phosphatase, placental type, sequence (P05187 whole entry): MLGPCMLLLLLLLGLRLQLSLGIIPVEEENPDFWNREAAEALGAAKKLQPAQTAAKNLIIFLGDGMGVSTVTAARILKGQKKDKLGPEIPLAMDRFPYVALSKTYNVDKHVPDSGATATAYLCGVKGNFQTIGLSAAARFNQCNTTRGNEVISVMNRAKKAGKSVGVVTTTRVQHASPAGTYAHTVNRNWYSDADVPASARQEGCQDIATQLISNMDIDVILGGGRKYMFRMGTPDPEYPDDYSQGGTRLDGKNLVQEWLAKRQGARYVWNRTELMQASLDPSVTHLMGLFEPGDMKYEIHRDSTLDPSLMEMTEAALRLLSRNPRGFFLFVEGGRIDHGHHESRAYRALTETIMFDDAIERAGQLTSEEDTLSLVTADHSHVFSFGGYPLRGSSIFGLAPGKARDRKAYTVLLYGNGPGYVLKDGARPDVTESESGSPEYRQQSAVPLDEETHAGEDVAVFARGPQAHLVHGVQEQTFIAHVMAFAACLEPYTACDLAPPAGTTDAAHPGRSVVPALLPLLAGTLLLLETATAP

[9] = luciferase reporter signal suppression in cells – H4 neuroglioma cells, luminescence, dose response (AID 1990); assay type: functional, cell-based
BJ [10] = test: cells; assay type: functional, cell-based; details: Homo sapiens
cells = assay type: functional, cell-based
[11] = DRD fibroblast viability loss – cell-based, non-viral oncogenic, luminescence, dose response (AID 1934); assay type: functional; details: Homo sapiens
[12] = off-target signal loss in HeLa-CEM21 co-culture – HeLa F-luc CTL cells, cherry-picked, counter-screen for HIV-1 Env fusion inhibitor project, dose response (AID 652040); assay type: functional, cell-based;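 further: potency for signal decrease marking cytotoxic or nonspecific inhibition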
[13] = NIH-3T3 fibroblast cytotoxicity, dose response, cytotoxicity control, cell-based, fluorescence, Alamar Blue, secondary assay (AID 2327); assay type: functional;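 further: NIH-3T3 mouse fibroblasts cultured with fluconazole at 8 µg/mL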
BJ [14] = test: BJ-TERT-LT-ST fibroblast viability loss – cell-based, RAS-independent, luminescence, dose response (AID 1935); assay type: functional; details: Homo sapiens;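 further: BJ fibroblasts immortalized with TERT plus LT and ST oncogenes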
[15] = viability loss in CEM21 cells – cell-based, CellTiter-Glo luminescence, cherry-picked, cytotoxicity control for viral fusion inhibitor project, dose response (AID 652042); assay type: functional;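 further: potency for signal decrease meaning cytotoxicity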
[16] = test system: Streptococcus sp. 'group A'; test: Streptococcus pyogenes SK(-)GAS viability under kanamycin – luminescence, BacTiterGlo, confirmation, counter-screen for streptokinase expression inhibitor project, dose response (AID 1900); assay type: functional, organism-based
Beta Lactamase = Beta Lactamase (Pseudomonas aeruginosa, UniProt Q932Y6); test: BLA reporter interference, concentration series – BLA reporter cells, FRET fluorescence, artefact control for TLR9-MyD88 binding inhibitor project, dose response (AID 588341); assay type: cell-based;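 further: cell based assay in CHO-K1 cells stably expressing beta-lactamase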
Beta Lactamase, sequence (Q932Y6 whole entry, the tested form may be a part): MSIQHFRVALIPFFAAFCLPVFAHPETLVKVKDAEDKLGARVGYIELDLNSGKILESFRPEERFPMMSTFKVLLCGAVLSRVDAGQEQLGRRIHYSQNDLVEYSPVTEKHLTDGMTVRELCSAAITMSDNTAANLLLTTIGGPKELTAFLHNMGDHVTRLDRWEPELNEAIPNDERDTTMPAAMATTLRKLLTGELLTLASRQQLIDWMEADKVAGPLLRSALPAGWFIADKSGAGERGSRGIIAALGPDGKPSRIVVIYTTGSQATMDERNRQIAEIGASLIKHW

[17] = blockers of HIV-1 envelope-mediated cell-cell fusion – cherry-pick, dose response (AID 652057); assay type: functional, cell-based
[18] = target: NACHT, LRR and PYD domains-containing protein 3 (Homo sapiens, UniProt Q96P20); test: NALP3 inhibitors in yeast, dose response, luminescent (AID 488799); assay type: functional
NACHT, LRR and PYD domains-containing protein 3, sequence (Q96P20 whole entry, the tested form may be a part): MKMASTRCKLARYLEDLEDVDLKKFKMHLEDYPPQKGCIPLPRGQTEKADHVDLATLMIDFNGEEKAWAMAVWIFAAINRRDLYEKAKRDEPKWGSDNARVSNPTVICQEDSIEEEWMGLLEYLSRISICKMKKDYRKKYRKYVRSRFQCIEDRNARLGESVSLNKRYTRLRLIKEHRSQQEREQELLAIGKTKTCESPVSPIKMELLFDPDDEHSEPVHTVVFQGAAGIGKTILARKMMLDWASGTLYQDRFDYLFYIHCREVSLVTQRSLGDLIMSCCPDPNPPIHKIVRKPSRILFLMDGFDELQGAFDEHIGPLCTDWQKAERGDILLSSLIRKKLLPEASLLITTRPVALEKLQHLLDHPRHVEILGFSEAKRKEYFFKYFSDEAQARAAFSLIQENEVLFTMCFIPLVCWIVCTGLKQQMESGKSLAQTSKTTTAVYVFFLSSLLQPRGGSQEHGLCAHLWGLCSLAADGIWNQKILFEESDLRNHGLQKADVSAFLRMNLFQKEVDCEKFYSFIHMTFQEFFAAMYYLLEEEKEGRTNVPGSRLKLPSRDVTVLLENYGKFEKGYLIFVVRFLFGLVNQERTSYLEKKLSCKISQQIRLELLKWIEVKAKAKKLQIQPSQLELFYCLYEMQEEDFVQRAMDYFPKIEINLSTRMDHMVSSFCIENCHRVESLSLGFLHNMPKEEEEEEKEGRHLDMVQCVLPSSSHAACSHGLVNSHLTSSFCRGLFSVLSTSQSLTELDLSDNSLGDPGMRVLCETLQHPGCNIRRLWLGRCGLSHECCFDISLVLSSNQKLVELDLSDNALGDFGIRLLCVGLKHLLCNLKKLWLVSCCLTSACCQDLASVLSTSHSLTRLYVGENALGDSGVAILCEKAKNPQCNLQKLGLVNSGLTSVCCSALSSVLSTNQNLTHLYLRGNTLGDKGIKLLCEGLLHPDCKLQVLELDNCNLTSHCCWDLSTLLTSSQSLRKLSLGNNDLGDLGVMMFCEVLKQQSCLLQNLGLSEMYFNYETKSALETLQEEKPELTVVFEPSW

[19] = Luminescence Cell-Based Dose Response HTS to Identify Inhibitors of 5'UTR Stem-Loop Driven Prion Protein mRNA Translation in H4 Neuroglioblastoma Cells. [Related pubchem assays: 1827 (Project Summary), 1813 (Primary HTS)]; assay type: functional
[20] = alpha-synuclein stem-loop luciferase translation blockers – H4 neuroglioma cells, luminescence, confirmation (AID 1988); assay type: functional, cell-based
[21] = luciferase reporter signal reduction – luminescence, H4-C neuroglioblastoma cells, dose response (AID 2458); assay type: functional, cell-based;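 further: H4 neuroglioblastoma cells stably carrying a luciferase reporter gene fusion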
INS1 = test: INS-1E survival protection against cytokine death – cell-based, luminescence, retest, dose response (AID 449756); assay type: functional; details: Rattus norvegicus;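 further: cell death triggered by IL-1 beta plus TNF-alpha plus IFN-gamma mixture; protective hits raise ATP signal compared with cytokine alone wells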
[22] = target: Hepatocyte nuclear factor 4-alpha (Homo sapiens, UniProt P41235); assay type: functional, cell-based;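 further: biochemical luminescence-based dose-response counterscreen measuring inhibition of HNF4 dimerization, run alongside a screen for blockers of ABHD5–perilipin-5 interaction; split luciferase complementation of HNF4 fusion proteins in cell lysate measuring dimerization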
Hepatocyte nuclear factor 4-alpha, sequence (P41235 whole entry, the tested form may be a part): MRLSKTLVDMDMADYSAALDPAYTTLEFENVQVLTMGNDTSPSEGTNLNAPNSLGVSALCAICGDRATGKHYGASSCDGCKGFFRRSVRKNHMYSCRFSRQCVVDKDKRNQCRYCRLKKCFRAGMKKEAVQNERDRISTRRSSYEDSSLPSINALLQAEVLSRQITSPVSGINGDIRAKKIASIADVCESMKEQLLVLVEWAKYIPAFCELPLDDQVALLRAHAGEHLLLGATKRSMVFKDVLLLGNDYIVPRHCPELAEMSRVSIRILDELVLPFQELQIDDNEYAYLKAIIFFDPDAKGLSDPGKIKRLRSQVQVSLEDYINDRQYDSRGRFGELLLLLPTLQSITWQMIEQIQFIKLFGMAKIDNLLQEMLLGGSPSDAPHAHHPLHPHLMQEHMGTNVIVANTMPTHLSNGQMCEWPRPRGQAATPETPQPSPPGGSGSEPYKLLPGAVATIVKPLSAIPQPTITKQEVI

[23] = fluconazole-exposed Candida albicans growth modulators – fluorescence, retest, confirmation (AID 2467); assay type: functional, cell-based
[24] = target: Intestinal-type alkaline phosphatase (Homo sapiens, UniProt P09923); test: activation of human intestinal alkaline phosphatase – biochemical, dose response (AID 488873); assay type: functional
[25] = target: ATP-dependent molecular chaperone HSP82 (Candida albicans (strain WO-1) (Yeast), UniProt C4YTQ8); test: steroid-induced GRE reporter decrease in yeast – S. cerevisiae, luminescence, Hsp90 inhibitor project, dose response (AID 2400); assay type: functional, cell-based;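 further: beta-galactosidase luminescence from glucocorticoid response element reporter as proxy for Hsp90 function; inhibitor potency where signal loss means Hsp90 inhibition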
BJ [26] = test: BJ-TERT fibroblast viability loss – cell-based, RAS-independent, luminescence, dose response (AID 1933); assay type: functional; details: Homo sapiens
[27] = target: Delta-type opioid receptor (Homo sapiens, UniProt P41143); test: SAR Analysis of Agonists of the DOR Receptor using an Image-Based Assay - Set 3. [Related pubchem assays (depositor defined):AID1777, AID1786]; assay type: functional
Delta-type opioid receptor, sequence (P41143 whole entry): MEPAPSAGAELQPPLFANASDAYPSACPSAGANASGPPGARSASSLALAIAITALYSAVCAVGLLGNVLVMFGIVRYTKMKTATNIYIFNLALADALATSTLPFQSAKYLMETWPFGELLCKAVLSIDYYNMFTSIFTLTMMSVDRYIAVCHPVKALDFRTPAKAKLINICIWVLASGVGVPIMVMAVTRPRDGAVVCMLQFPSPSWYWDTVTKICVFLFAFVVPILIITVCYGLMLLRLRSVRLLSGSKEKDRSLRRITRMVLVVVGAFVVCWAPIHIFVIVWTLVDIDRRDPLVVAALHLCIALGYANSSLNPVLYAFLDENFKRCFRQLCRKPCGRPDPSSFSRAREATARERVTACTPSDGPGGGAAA

[28] = target: T1, Kappa-type opioid receptor (Homo sapiens, UniProt P41145); test: kappa opioid receptor activation by imaging – image-based, set 3, SAR follow-up (AID 488833); assay type: functional
T1 sequence (P41145 whole entry): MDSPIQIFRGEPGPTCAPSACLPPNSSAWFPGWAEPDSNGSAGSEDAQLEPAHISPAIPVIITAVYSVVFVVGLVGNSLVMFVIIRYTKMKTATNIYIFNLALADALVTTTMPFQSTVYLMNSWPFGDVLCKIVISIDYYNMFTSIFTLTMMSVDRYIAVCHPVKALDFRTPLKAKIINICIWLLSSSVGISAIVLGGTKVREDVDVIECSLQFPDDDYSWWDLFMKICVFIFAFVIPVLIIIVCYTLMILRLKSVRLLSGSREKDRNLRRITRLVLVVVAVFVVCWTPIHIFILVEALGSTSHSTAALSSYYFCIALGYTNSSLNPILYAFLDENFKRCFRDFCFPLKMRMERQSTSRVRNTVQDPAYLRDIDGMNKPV

Mu-type opioid receptor = Mu-type opioid receptor (Homo sapiens, UniProt P35372); test: SAR Analysis of Agonists of the MOR Receptor using an Image-Based Assay - Set 3. [Related pubchem assays (depositor defined):AID1777, AID1785, AID1786, AID1966, AID2133, AID2136, AID2284, AID2285, AID2352]; assay type: functional
[29] = target: T1, Kappa-type opioid receptor; test: SAR analysis of small molecule agonists of the kappa opioid receptor via a luminescent beta-arrestin assay - Set 3. [Related pubchem assays (depositor defined):AID1777, AID1785, AID1786, AID1966, AID2133, AID2136, AID2284, AID2500]; assay type: functional
[30] = target: Sphingosine 1-phosphate receptor 1 (Homo sapiens, UniProt P21453); test: Fluorescence-based counterscreen assay for S1P4 agonists: Cell-based dose response high throughput screening assay to identify agonists of the Sphingosine 1-Phosphate Receptor 1 (S1P1). [Related pubchem assays (depositor defined):AID1509, AID1523, AID1801, AID463107, AID463118, AID463119, AID463122, AID463123, AID463129, AID463225, AID504400, AID504460]; assay type: functional
[31] = target: T2, Sphingosine 1-phosphate receptor 4 (Homo sapiens, UniProt O95977); test: Fluorescence dose response cell-based high throughput screening assay for agonists of the Sphingosine 1-Phosphate Receptor 4 (S1P4). [Related pubchem assays: 1509 (Primary screen.), 1523 (Confirmation screen in triplicates.)]; assay type: functional
T2 sequence (O95977 whole entry): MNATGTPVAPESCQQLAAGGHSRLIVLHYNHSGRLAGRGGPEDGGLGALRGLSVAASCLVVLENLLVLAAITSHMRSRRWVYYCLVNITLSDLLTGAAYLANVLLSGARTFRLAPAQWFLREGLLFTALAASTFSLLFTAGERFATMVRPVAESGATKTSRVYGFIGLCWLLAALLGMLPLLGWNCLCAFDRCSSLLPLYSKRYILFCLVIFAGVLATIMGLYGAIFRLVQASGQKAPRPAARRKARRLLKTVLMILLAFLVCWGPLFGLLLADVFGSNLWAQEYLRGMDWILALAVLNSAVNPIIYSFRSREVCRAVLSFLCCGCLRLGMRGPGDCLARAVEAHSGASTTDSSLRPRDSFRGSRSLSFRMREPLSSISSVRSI

[32] = target: DNA dC->dU-editing enzyme APOBEC-3G (Homo sapiens, UniProt Q9HC16); assay type: functional;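 further: Dose-response counterscreen measuring inhibition of APOBEC3G DNA deaminase activity, run while confirming APOBEC3A inhibitors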
DNA dC->dU-editing enzyme APOBEC-3G, sequence (Q9HC16 whole entry): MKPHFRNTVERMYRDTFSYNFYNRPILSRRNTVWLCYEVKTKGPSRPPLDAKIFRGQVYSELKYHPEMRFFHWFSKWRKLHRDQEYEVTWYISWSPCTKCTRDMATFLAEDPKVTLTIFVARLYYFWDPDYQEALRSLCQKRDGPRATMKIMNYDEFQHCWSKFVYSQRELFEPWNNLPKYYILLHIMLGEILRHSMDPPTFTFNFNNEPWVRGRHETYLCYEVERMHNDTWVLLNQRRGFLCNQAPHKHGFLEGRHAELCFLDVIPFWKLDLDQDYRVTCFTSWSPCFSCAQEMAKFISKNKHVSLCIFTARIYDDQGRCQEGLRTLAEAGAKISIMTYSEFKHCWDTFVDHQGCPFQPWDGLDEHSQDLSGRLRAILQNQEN

[33] = target: DNA dC->dU-editing enzyme APOBEC-3A (Homo sapiens, UniProt P31941); test: Dose Response confirmation of small molecule APOBEC3A DNA Deaminase Inhibitors via a fluorescence-based single-stranded DNA deaminase assay. [Related pubchem assays (depositor defined):AID493011, AID493024]; assay type: functional
DNA dC->dU-editing enzyme APOBEC-3A, sequence (P31941 whole entry): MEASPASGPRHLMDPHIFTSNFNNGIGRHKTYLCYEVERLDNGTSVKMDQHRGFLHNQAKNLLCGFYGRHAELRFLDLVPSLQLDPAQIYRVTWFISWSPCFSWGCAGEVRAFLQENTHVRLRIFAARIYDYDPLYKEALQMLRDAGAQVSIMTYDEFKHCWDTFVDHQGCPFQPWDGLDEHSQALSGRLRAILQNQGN

[34] = Trypanosoma cruzi growth suppression in host cells – NIH3T3 host cells, beta-gal luminescence, confirmation (AID 2044); assay type: functional, cell-based;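 further: intracellular parasites grown in NIH/3T3 mouse fibroblasts as host cells; luminescent beta-galactosidase reporter signal from transgenic T. cruzi replicating inside host cells; inhibitors lower the luminescence signal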
[35] = NIH3T3 cell viability loss – ATP luminescence, mouse fibroblasts, counter-screen, dose response (AID 2010); assay type: functional, cell-based;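 further: cells exposed to compound for about 90 hours before reading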

In the case of `CCN1/C(=C/C=C/c2oc3ccc(-c4ccccc4)cc3[n+]2CC)Oc2ccc(-c3ccccc3)cc21`, the EC50 (Streptococcus) is reported as 3890 nM (active), the EC50 [1] is reported as 104000 nM (active) and the EC50 [2] is reported as 22200 nM (active). The AC50 [3] was 2550 nM (active), the AC50 [4] was 3770 nM (active) and the CC50 [5] was 1560 nM (active). The EC50 (BJ [6]) was < 104 nM (active), the IC50 (CHO) was 1450 nM (active) and the EC50 [7] was 659 nM (active). For the same molecule, the IC50 [8] was > 100000 nM (inactive), the EC50 [9] was < 100 nM (active) and the EC50 (BJ [10]) was 1320 nM (inconclusive). For the same molecule, the EC50 (cells) was 863 nM (active), the EC50 [11] was 1040 nM (inconclusive) and the AC50 [12] was 6770 nM (active). The EC50 [13] was 3160 nM (inconclusive), the EC50 (BJ [14]) was 3420 nM (inconclusive) and the AC50 [15] was 1590 nM (active). The EC50 [16] was 1500 nM (active), the IC50 (Beta Lactamase) was 10700 nM (inactive) and the AC50 [17] was 1150 nM (active). The IC50 [18] was 9070 nM (active), the EC50 [19] was < 100 nM (active) and the EC50 [20] was < 100 nM (active). For the same molecule, the EC50 [21] was 696 nM (active), the AC50 (INS1) was 230 nM (active) and the IC50 [22] was 3880 nM (active). For the same molecule, the EC50 [23] was 976 nM (active), the EC50 [24] was 24200 nM (active) and the EC50 [25] was 23600 nM (active). The EC50 (BJ [26]) was 1630 nM (inconclusive).

In the case of `O=[N+]([O-])c1ccc(CSc2nnc(-c3ccccn3)n2Cc2ccco2)cc1`, the EC50 [27] is reported as > 64000 nM (inactive), the EC50 [28] is reported as 2350 nM (active) and the EC50 (Mu-type opioid receptor) is reported as > 32000 nM (inactive). The EC50 [29] was 2480 nM (active).

In the case of `Clc1ccc(C2=NN(c3ccccc3)C(c3ccco3)C2)cc1` (stereo unspecified), the EC50 [30] is reported as > 5530 nM (inactive) and the EC50 [31] is reported as > 16600 nM (not active).

In the case of `CCN1CCN(c2ccc(S(=O)(=O)N3CCCCC3)cc2NC(=O)COc2ccc(F)cc2Cl)CC1`, the IC50 [32] is reported as 5240 nM (active), the IC50 [33] is reported as 3240 nM (active) and the EC50 [34] is reported as 474 nM (active). The EC50 [35] was > 60000 nM (not active).
